Measured values published in patent US20110065788A1, “AQUEOUS FORMULATIONS OF (2-HYDROXYMETHYL-INDANYL-4-OXY)-PHENYL-4,4,4-TRIFLUOROBUTANE-1-SULFONATE” (BAYER SCHERING PHARMA AKTIENGESELLSCHAFT, priority 2002, published 2011).
Converted amounts (≈) assume the structure as drawn.

Test: solubility in water
Format: physicochemical
Conditions: 25° C.

With `O=S(=O)(CCCC(F)(F)F)Oc1cccc(Oc2cccc3c2C[C@H](CO)C3)c1` [Compound (I), (−)-(R)-3-(2-Hydroxymethylindanyl-4-oxy)phenyl 4,4,4-trifluorobutane-1-sulfonate] as the molecule, how does the solubility read?
The solubility was 2 µg/mL (≈ 4.65 µM).
